This assay concerns the target GST-tagged truncated human mutant G2019S LRRK2 (Homo sapiens, UniProt Q5S007, G2019S). Put plainly: LRRK2 G2019S Km ATP LanthaScreen assay. Format: biochemical. As to conditions: 134 μM ATP (Km ATP), LRRKtide substrate, mean IC50 values; read-out: LRRK2 pIC50 (converted). The gist of the method:
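Compound preincubated 15 min at room temperature with enzyme in pH 8.5 Tris buffer (10 mM MgCl2). Then a 90 min reaction at ambient temperature with 134 μM (Km) ATP and fluorescein-LRRKtide. EDTA stop, Tb anti-phospho antibody TR-FRET; […]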
In the case of `Cn1ncc(Nc2ncc3cc(Cl)c(N4CCN(C5(C)COC5)CC4)cc3n2)c1Cl` [Ex-4.47, 6-chloro-N-(5-chloro-1-methyl-1H-pyrazol-4-yl)-7-[4-(3-methyloxetan-3-yl)piperazin-1-yl]quinazolin-2-amine], the IC50 is 8.56 nM.

On to `CC1(N2CCN(c3cc4nc(Nc5cnn(CC6CC6)c5Cl)ncc4cc3Cl)CC2)COC1` [Ex-4.48, 6-chloro-N-[5-chloro-1-(cyclopropylmethyl)-1H-pyrazol-4-yl]-7-[4-(3-methyloxetan-3-yl)piperazin-1-yl]quinazolin-2-amine], for which the IC50 was 0.625 nM.

`CC1(N2CCN(c3cc4nc(Nc5cnn(C6COC6)c5Cl)ncc4cc3Cl)CC2)COC1` [Ex-4.49, 6-chloro-N-[5-chloro-1-(oxetan-3-yl)-1H-pyrazol-4-yl]-7-[4-(3-methyloxetan-3-yl)piperazin-1-yl]quinazolin-2-amine]: the IC50 is 1.87 nM.

Regarding `CC1(N2CCN(c3cc4nc(Nc5cnn(C6CCC6)c5Cl)ncc4cc3Cl)CC2)COC1` [Ex-4.50, 6-chloro-N-(5-chloro-1-cyclobutyl-1H-pyrazol-4-yl)-7-[4-(3-methyloxetan-3-yl)piperazin-1-yl]quinazolin-2-amine], the IC50 is 4.61 nM.

As for `CC(C)(O)Cn1ncc(Nc2ncc3cc(Cl)c(N4CCN(C5(C)COC5)CC4)cc3n2)c1Cl` [Ex-4.51, 1-[5-chloro-4-({6-chloro-7-[4-(3-methyloxetan-3-yl)piperazin-1-yl]quinazolin-2-yl}amino)-1H-pyrazol-1-yl]-2-methylpropan-2-ol], the IC50 is 2.76 nM.

With `CC1(Cn2ncc(Nc3ncc4cc(Cl)c(N5CCN(C6(C)COC6)CC5)cc4n3)c2Cl)COC1` [Ex-4.52, 6-chloro-N-{5-chloro-1-[(3-methyloxetan-3-yl)methyl]-1H-pyrazol-4-yl}-7-[4-(3-methyloxetan-3-yl)piperazin-1-yl]quinazolin-2-amine], the IC50 was 1.89 nM.

On to `CC1(N2CCN(c3cc4nc(Nc5cnn(CC6(C#N)CC6)c5)ncc4cc3Cl)CC2)COC1` [Ex-4.53, 1-{[4-({6-chloro-7-[4-(3-methyloxetan-3-yl)piperazin-1-yl]quinazolin-2-yl}amino)-1H-pyrazol-1-yl]methyl}cyclopropane-1-carbonitrile], for which the IC50 was 1.82 nM.

For the molecule `CC1(N2CCN(c3cc4nc(Nc5cnn(CC6CCC6)c5Cl)ncc4cc3Cl)CC2)COC1` [Ex-4.54, 6-chloro-N-[5-chloro-1-(cyclobutylmethyl)-1H-pyrazol-4-yl]-7-[4-(3-methyloxetan-3-yl)piperazin-1-yl]quinazolin-2-amine], the IC50 was 2.87 nM.

For `Cc1c(Nc2ncc3cc(Cl)c(N4CCN(C5(C)COC5)CC4)cc3n2)cnn1CC(C)(C)O` [Ex-4.55, 1-[4-({6-chloro-7-[4-(3-methyloxetan-3-yl)piperazin-1-yl]quinazolin-2-yl}amino)-5-methyl-1H-pyrazol-1-yl]-2-methylpropan-2-ol], the IC50 was 11.1 nM.

Regarding `CC1(N2CCN(c3cc4nc(Nc5cnn(C(F)F)c5)ncc4cc3Cl)CC2)COC1` [Ex-4.57, 6-chloro-N-[1-(difluoromethyl)-1H-pyrazol-4-yl]-7-[4-(3-methyloxetan-3-yl)piperazin-1-yl]quinazolin-2-amine], the IC50 is 4.13 nM.

For `CC1(N2CCN(c3cc4nc(Nc5cnn(C6CC6)c5Cl)ncc4cc3Cl)CC2)COC1` [Ex-4.58, 6-chloro-N-(5-chloro-1-cyclopropyl-1H-pyrazol-4-yl)-7-[4-(3-methyloxetan-3-yl)piperazin-1-yl]quinazolin-2-amine], the IC50 is 2.32 nM.

`CC(C)(O)Cn1cc(Nc2ncc3cc(Cl)c(N4CCN(C5(C)COC5)CC4)cc3n2)cn1` [Ex-4.59, 1-[4-({6-chloro-7-[4-(3-methyloxetan-3-yl)piperazin-1-yl]quinazolin-2-yl}amino)-1H-pyrazol-1-yl]-2-methylpropan-2-ol]: the IC50 is 5.26 nM.

For the molecule `Cc1cc(Nc2ncc3cc(Cl)c(N4CCN(C5(C)COC5)CC4)cc3n2)sn1` [Ex-4.62, 6-chloro-7-[4-(3-methyloxetan-3-yl)piperazin-1-yl]-N-(3-methyl-1,2-thiazol-5-yl)quinazolin-2-amine], the IC50 was 0.793 nM.

Take `CC1(N2CCN(c3cc4nc(Nc5ccn(CC(F)(F)F)n5)ncc4cc3Cl)CC2)COC1` [Ex-4.63, 6-chloro-7-[4-(3-methyloxetan-3-yl)piperazin-1-yl]-N-[1-(2,2,2-trifluoroethyl)-1H-pyrazol-3-yl]quinazolin-2-amine]: the IC50 was 28.3 nM.

For `CC(C)(C)Cn1cc(Nc2ncc3cc(Cl)c(N4CCN(C5(C)COC5)CC4)cc3n2)cn1` [Ex-4.64, 6-chloro-N-[1-(2,2-dimethylpropyl)-1H-pyrazol-4-yl]-7-[4-(3-methyloxetan-3-yl)piperazin-1-yl]quinazolin-2-amine], the IC50 is 9.73 nM.

For `CC1(N2CCN(c3cc4nc(Nc5cnn(CC6C[C@@H](F)[C@H](F)C6)c5)ncc4cc3Cl)CC2)COC1` [Ex-4.65, 6-chloro-N-(1-{[(3R,4R)-3,4-difluorocyclopentyl]methyl}-1H-pyrazol-4-yl)-7-[4-(3-methyloxetan-3-yl)piperazin-1-yl]quinazolin-2-amine], the IC50 was 23.9 nM.

On to `CC1(N2CCN(c3cc4nc(Nc5cnn(CC6C[C@H](F)[C@@H](F)C6)c5)ncc4cc3Cl)CC2)COC1` [Ex-4.66, 6-chloro-N-(1-{[(3S,4S)-3,4-difluorocyclopentyl]methyl}-1H-pyrazol-4-yl)-7-[4-(3-methyloxetan-3-yl)piperazin-1-yl]quinazolin-2-amine], for which the IC50 is 8.88 nM.

With `Cc1nscc1Nc1ncc2cc(Cl)c(N3CCN(C4(C)COC4)CC3)cc2n1` [Ex-4.67, 6-chloro-7-[4-(3-methyloxetan-3-yl)piperazin-1-yl]-N-(3-methyl-1,2-thiazol-4-yl)quinazolin-2-amine], the IC50 was 23.8 nM.

`CCn1ncc(Nc2ncc3cc(Cl)c(N4CCN(C5(C)COC5)CC4)cc3n2)c1Cl` [Ex-4.68, 6-chloro-N-(5-chloro-1-ethyl-1H-pyrazol-4-yl)-7-[4-(3-methyloxetan-3-yl)piperazin-1-yl]quinazolin-2-amine]: the IC50 is 3.38 nM.

For `COC1CC(Cn2ncc(Nc3ncc4cc(Cl)c(N5CCN(C6(C)COC6)CC5)cc4n3)c2Cl)C1` (stereo not shown) [Ex-4.69, 6-chloro-N-{5-chloro-1-[(3-methoxycyclobutyl)methyl]-1H-pyrazol-4-yl}-7-[4-(3-methyloxetan-3-yl)piperazin-1-yl]quinazolin-2-amine], the IC50 is 3.23 nM.

`CC1(N2CCN(c3cc4nc(Nc5cnn(CC6CC6(F)F)c5)ncc4cc3Cl)CC2)COC1` (stereo not shown) [Ex-4.70, 6-chloro-N-{1-[(2,2-difluorocyclopropyl)methyl]-1H-pyrazol-4-yl}-7-[4-(3-methyloxetan-3-yl)piperazin-1-yl]quinazolin-2-amine]: the IC50 was 4.93 nM.

With `FC1(F)CC(N2CCN(c3cc4nc(Nc5cnn(C6CC6)c5Cl)ncc4cc3Cl)CC2)C1` [Ex-4.71, 6-chloro-N-(5-chloro-1-cyclopropyl-1H-pyrazol-4-yl)-7-(4-(3,3-difluorocyclobutyl)piperazin-1-yl)quinazolin-2-amine], the IC50 is 11.1 nM.

Consider `Cc1cc2cnc(Nc3cnn(C4(C)CC4)c3Cl)nc2cc1N1CCN(C2(C)COC2)CC1` [Ex-5.9, N-[5-chloro-1-(1-methylcyclopropyl)-1H-pyrazol-4-yl]-6-methyl-7-[4-(3-methyloxetan-3-yl)piperazin-1-yl]quinazolin-2-amine], for which the IC50 was 0.64 nM.

Take `Cc1cc2cnc(Nc3cnn(C4CC4)c3Cl)nc2cc1N1CCN(C2(C)COC2)CC1` [Ex-5.10, N-(5-chloro-1-cyclopropyl-1H-pyrazol-4-yl)-6-methyl-7-[4-(3-methyloxetan-3-yl)piperazin-1-yl]quinazolin-2-amine]: the IC50 was 5.67 nM.

Take `Cc1cc2cnc(Nc3cnn(C4CC4)c3C)nc2cc1N1CCN(C2(C)COC2)CC1` [Ex-5.11, N-(1-cyclopropyl-5-methyl-1H-pyrazol-4-yl)-6-methyl-7-[4-(3-methyloxetan-3-yl)piperazin-1-yl]quinazolin-2-amine]: the IC50 is 2.82 nM.

Regarding `Cc1cc2cnc(Nc3cnn(C4CC4(F)F)c3Cl)nc2cc1N1CCNCC1` (stereo not shown) [Ex-5.14, N-(5-chloro-1-(2,2-difluorocyclopropyl)-1H-pyrazol-4-yl)-6-methyl-7-(piperazin-1-yl)quinazolin-2-amine], the IC50 was 11.6 nM.

With `Cc1cc2cnc(Nc3cnn(C45CC(F)(C4)C5)c3Cl)nc2cc1N1CCNCC1` [Ex-5.15, N-(5-chloro-1-(3-fluorobicyclo[1.1.1]pentan-1-yl)-1H-pyrazol-4-yl)-6-methyl-7-(piperazin-1-yl)quinazolin-2-amine], the IC50 is 25.1 nM.

Take `CC1(N2CCN(c3cc4nc(Nc5cnn(CC(F)F)c5)ncc4cc3Cl)CC2)COC1` [Ex-6.1, 6-chloro-N-(1-(2,2-difluoroethyl)-1H-pyrazol-4-yl)-7-(4-(3-methyloxetan-3-yl)piperazin-1-yl)quinazolin-2-amine]: the IC50 was 5.68 nM.

`CCn1ncc(Nc2ncc3cc(Cl)c(N4CCC(C)(O)CC4)cc3n2)c1F` [Ex-6.3, 1-{6-chloro-2-[(1-ethyl-5-fluoro-1H-pyrazol-4-yl)amino]quinazolin-7-yl}-4-methylpiperidin-4-ol]: the IC50 is 10.3 nM.

With `Cc1c(Nc2ncc3cc(Cl)c(N4CCC(C)(O)CC4)cc3n2)cnn1C1CC1` [Ex-6.4, 1-{6-chloro-2-[(1-cyclopropyl-5-methyl-1H-pyrazol-4-yl)amino}quinazolin-7-yl}-4-methylpiperidin-4-ol], the IC50 was 1.92 nM.

With `CC(C)(O)CC(O)Cn1ncc(Nc2ncc3cc(Cl)c(N4CCC(C)(O)CC4)cc3n2)c1Cl` (stereo not shown) [Ex-6.5, 1-(5-chloro-4-{[6-chloro-7-(4-hydroxy-4-methylpiperidin-1-yl)quinazolin-2-yl]amino}-1H-pyrazol-1-yl)-4-methylpentane-2,4-diol], the IC50 was 27.3 nM.

Values taken from patent publication US20230303540A1 (Merck Sharp & Dohme LLC, priority 2020, published 2023).
